Earlier results as cited in patent US9814239B2, “Antimicrobial complexes” (priority 2010, dated 2017).

Tests used:
Escherichia coli = details: Gram Negative
Bacillus subtilis = details: Gram Positive
Streptococcus faecalis = details: Gram Positive
Staphylococcus aureus = details: Gram Positive
Pseudomonas aeruginosa = details: Gram Negative
Endomycopsis albicans = details: Yeasts
Aspergillus niger = details: Molds
Salmonella typhimurium = details: Gram Negative
Saccharomyces cerevisiae = details: Amoeba (so in the source)
Proteus vulgaris = details: Gram Negative

[O-][n+]1ccccc1S [Sodium Omadine, sodium omadine]
Bactericide concentration (ppm) (Escherichia coli): 16 ppm | Bactericide concentration (ppm) (Bacillus subtilis): 0.5 ppm | Bactericide concentration (ppm) (Streptococcus faecalis): 2 ppm | Bactericide concentration (ppm) (Staphylococcus aureus): 16 ppm | Bactericide concentration (ppm) (Pseudomonas aeruginosa): 128 ppm | Fungicide concentration (ppm) (Endomycopsis albicans): <0.25 ppm | Fungicide concentration (ppm) (Aspergillus niger): <0.25 ppm | Bactericide concentration (ppm) (Salmonella typhimurium): 16 ppm | Fungicide concentration (ppm) (Saccharomyces cerevisiae): <0.25 ppm | Bactericide concentration (ppm) (Proteus vulgaris): 8 ppm
